Values after ≈ are worked out from the molar mass of the structure shown. Active and inactive are the calls of the source. No cut-off for these calls is given here.
Tests used:
[1] = Apparent permeability across basal to apical side in human Caco-2 cells at 25 uM incubated for 120 mins by UPLC-MS/MS analysis; assay type: ADME, cell-based
[2] = Drug distribution in deep organs of C57BL/6J mouse at 100 mg/kg, po administered as single dose measured for 0.5 to 3 hrs by UHPLC-Q-Orbitrap HRMS analysis; assay type: ADME, organism-based, Deep organ; conditions: in vivo, time 0.5-3 hrs
[3] = Apparent permeability across apical to basal side in human Caco-2 cells at 25 uM incubated for 120 mins by UPLC-MS/MS analysis; assay type: ADME, cell-based
[4] = Permeability across basal to apical side in human Caco-2 cells assessed as cumulative penetration amount at 25 uM incubated for 120 mins by UPLC-MS/MS analysis; assay type: ADME, cell-based; conditions: caco-2, 2 h
Cytochrome P450 2D6 = Cytochrome P450 2D6 (Homo sapiens, UniProt P10635); test: Inhibition of CYP2D6 in human liver microsomes using dextromethorphan as substrate upto 10 uM; assay type: ADME, Microsome
[5] = Drug distribution in stomach of C57BL/6J mouse at 100 mg/kg, po administered as single dose measured for 0.5 to 3 hrs by UHPLC-Q-Orbitrap HRMS analysis; assay type: ADME, organism-based; conditions: in vivo, time 0.5-3 hrs
[6] = Drug distribution in ileum of C57BL/6J mouse at 100 mg/kg, po administered as single dose measured for 0.5 to 3 hrs by UHPLC-Q-Orbitrap HRMS analysis; assay type: ADME, organism-based; conditions: in vivo, time 0.5-3 hrs
[7] = Permeability across apical to basal side in human Caco-2 cells assessed as cumulative penetration amount at 100 uM incubated for 120 mins by UPLC-MS/MS analysis; assay type: ADME, cell-based; conditions: caco-2, 2 h
[8] = Sub-acute toxicity in C57BL/6J mouse assessed as change in CREA level at 100 mg/kg/day, po treated for 14 days consecutively; assay type: organism-based; conditions: in vivo, 336 h, time 14 day
[9] = Sub-acute toxicity in C57BL/6J mouse assessed as abnormality in stomach at 100 mg/kg/day, po treated for 14 days consecutively by H and E staining based analysis; assay type: organism-based; conditions: in vivo, 336 h, time 14 day
[10] = Inhibition of human pancreatic lipase using DDAO-ol as substrate preincubated for 3 mins followed by substrate addition by fluorescence based assay
[11] = Sub-acute toxicity in C57BL/6J mouse assessed as abnormality in gastrointestinal tract at 100 mg/kg/day, po treated for 14 days consecutively by H and E staining based analysis; assay type: organism-based; conditions: in vivo, 336 h, time 14 day
[12] = Aqueous solubility of compound by UPLC-MS/MS analysis; assay type: physicochemical; conditions: buffer
[13] = Sub-acute toxicity in C57BL/6J mouse assessed as change in ALP level at 100 mg/kg/day, po treated for 14 days consecutively; assay type: organism-based; conditions: in vivo, 336 h, time 14 day
[14] = Apparent permeability across apical to basal side in human Caco-2 cells at 100 uM incubated for 120 mins by UPLC-MS/MS analysis; assay type: ADME, cell-based
Mus musculus [15] = test: Inhibition of irinotecan-triggered gut toxicity in C57BL/6J mouse bearing tumor cells assessed as increase in colonic length at 25 to 50 mg/kg/day, po treated for 14 days; assay type: functional, organism-based; conditions: dose 25-50 mg/kg/day, time 14.0 day
[16] = Inhibition of human CES1A using NLMe as substrate incubated for 3 mins by chemiluminescence analysis
[17] = Drug distribution in duodenum of C57BL/6J mouse at 100 mg/kg, po administered as single dose measured for 0.5 to 3 hrs by UHPLC-Q-Orbitrap HRMS analysis; assay type: ADME, organism-based; conditions: in vivo, time 0.5-3 hrs
[18] = Sub-acute toxicity in C57BL/6J mouse assessed as abnormality in lung at 100 mg/kg/day, po treated for 14 days consecutively by H and E staining based analysis; assay type: organism-based; conditions: in vivo, 336 h, time 14 day
[19] = Sub-acute toxicity in C57BL/6J mouse assessed as change in ALT level at 100 mg/kg/day, po treated for 14 days consecutively; assay type: organism-based; conditions: in vivo, 336 h, time 14 day
[20] = Sub-acute toxicity in C57BL/6J mouse assessed as change in movement behaviors at 100 mg/kg/day, po treated for 14 days consecutively; assay type: organism-based; conditions: in vivo, 336 h, time 14 day
Homo sapiens [21] = species: Homo sapiens; test: Inhibition of human CES2A assessed as decrease in residual activity upto 1.6 nM; conditions: time <= 30.0 min
Mus musculus [22] = test: Inhibition of irinotecan-induced anti-tumor activity in C57BL/6J mouse bearing tumor cells assessed as increase in tumor volume at 25 to 50 mg/kg/day, po treated for 14 days; assay type: functional, organism-based; conditions: dose 25-50 mg/kg/day, time 14.0 day
[23] = Sub-acute toxicity in C57BL/6J mouse assessed as abnormality in brain at 100 mg/kg/day, po treated for 14 days consecutively by H and E staining based analysis; assay type: organism-based; conditions: in vivo, 336 h, time 14 day
[24] = Sub-acute toxicity in C57BL/6J mouse assessed as abnormality in kidney at 100 mg/kg/day, po treated for 14 days consecutively by H and E staining based analysis; assay type: organism-based; conditions: in vivo, 336 h, time 14 day
Mus musculus [25] = test: Inhibition of irinotecan-triggered gut toxicity in C57BL/6J mouse bearing tumor cells assessed as decrease in DAI score at 25 to 50 mg/kg/day, po treated for 14 days; assay type: functional, organism-based; conditions: dose 25-50 mg/kg/day, time 14.0 day
[26] = Inhibition of human CES2A incubated for 3 mins
Mus musculus [27] = test: Inhibition of irinotecan-triggered gut toxicity in C57BL/6J mouse bearing tumor cells assessed as increase in occludin level in colon tissue at 25 to 50 mg/kg/day, po treated for 14 days by immunofluorescence based analysis; assay type: functional, organism-based; conditions: dose 25-50 mg/kg/day, time 14.0 day
Homo sapiens [28] = species: Homo sapiens; test: Covalent binding affinity to human CES2A Ser228 catalytic site assessed as covalent modification at 10 uM incubated for 4 hrs by nano-LC-MS/MS analysis
Mus musculus [29] = test: Inhibition of irinotecan-triggered gut toxicity in C57BL/6J mouse bearing tumor cells assessed as decrease in SN38 level in colon tissue at 25 to 50 mg/kg/day, po treated for 14 days; assay type: functional, organism-based; conditions: dose 25-50 mg/kg/day, time 14.0 day
[30] = Sub-acute toxicity in C57BL/6J mouse assessed as abnormality in spleen at 100 mg/kg/day, po treated for 14 days consecutively by H and E staining based analysis; assay type: organism-based; conditions: in vivo, 336 h, time 14 day
HepG2 = test: Cytotoxicity against human HepG2 cells at <20 uM; assay type: toxicity, cell-based; conditions: hepg2, 20 µM
Mus musculus [31] = test: Inhibition of irinotecan-triggered gut toxicity in C57BL/6J mouse bearing tumor cells assessed as increase in body weight at 25 to 50 mg/kg/day, po treated for 14 days; assay type: functional, organism-based; conditions: dose 25-50 mg/kg/day, time 14.0 day
Dipeptidyl peptidase 4 = Dipeptidyl peptidase 4 (Homo sapiens, UniProt P27487); test: Inhibition of human serum DPP-IV using GP-BAN as substrate preincubated for 3 mins followed by substrate addition by fluorescence based assay
Mus musculus [32] = test: Inhibition of irinotecan-triggered gut toxicity in C57BL/6J mouse bearing tumor cells assessed as intact structures in colon tissue at 25 to 50 mg/kg/day, po treated for 14 days by H and E staining based analysis; assay type: functional, organism-based; conditions: dose 25-50 mg/kg/day, time 14.0 day
[33] = Inhibition of human CES2A incubated for 33 mins
Homo sapiens [34] = species: Homo sapiens; test: Irreversible inhibition of human CES2A measured after 12 hrs by dialysis assay
Mus musculus [35] = test: Inhibition of irinotecan-triggered gut toxicity in C57BL/6J mouse bearing tumor cells assessed as decrease in serum ALT level at 25 to 50 mg/kg/day, po treated for 14 days; assay type: functional, organism-based; conditions: dose 25-50 mg/kg/day, time 14.0 day
[36] = Inhibition of human CES1A using NLMe as substrate preincubated for 3 mins followed by substrate addition measured after 30 mins by chemiluminescence analysis

Dipeptidyl peptidase 4, sequence (P27487 whole entry): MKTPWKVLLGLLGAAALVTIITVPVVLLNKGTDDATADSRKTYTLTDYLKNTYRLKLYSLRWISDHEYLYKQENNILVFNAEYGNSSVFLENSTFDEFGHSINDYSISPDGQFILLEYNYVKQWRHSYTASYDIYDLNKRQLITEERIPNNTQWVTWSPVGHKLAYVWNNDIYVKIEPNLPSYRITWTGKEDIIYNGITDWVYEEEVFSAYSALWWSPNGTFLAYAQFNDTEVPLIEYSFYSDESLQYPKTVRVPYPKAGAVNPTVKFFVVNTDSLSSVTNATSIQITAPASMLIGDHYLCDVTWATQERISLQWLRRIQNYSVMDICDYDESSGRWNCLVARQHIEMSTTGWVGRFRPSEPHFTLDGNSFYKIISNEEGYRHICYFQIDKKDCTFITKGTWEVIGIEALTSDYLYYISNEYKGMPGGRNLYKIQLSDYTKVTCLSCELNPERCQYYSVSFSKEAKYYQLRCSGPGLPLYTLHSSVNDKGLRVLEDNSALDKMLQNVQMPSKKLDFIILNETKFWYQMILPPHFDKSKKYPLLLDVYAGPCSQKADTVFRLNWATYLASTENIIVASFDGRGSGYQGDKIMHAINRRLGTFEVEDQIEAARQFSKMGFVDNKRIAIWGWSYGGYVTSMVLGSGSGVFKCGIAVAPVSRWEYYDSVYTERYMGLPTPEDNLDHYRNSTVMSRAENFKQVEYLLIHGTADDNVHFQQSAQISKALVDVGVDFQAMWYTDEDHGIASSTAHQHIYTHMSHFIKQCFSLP
Cytochrome P450 2D6, sequence (P10635 whole entry): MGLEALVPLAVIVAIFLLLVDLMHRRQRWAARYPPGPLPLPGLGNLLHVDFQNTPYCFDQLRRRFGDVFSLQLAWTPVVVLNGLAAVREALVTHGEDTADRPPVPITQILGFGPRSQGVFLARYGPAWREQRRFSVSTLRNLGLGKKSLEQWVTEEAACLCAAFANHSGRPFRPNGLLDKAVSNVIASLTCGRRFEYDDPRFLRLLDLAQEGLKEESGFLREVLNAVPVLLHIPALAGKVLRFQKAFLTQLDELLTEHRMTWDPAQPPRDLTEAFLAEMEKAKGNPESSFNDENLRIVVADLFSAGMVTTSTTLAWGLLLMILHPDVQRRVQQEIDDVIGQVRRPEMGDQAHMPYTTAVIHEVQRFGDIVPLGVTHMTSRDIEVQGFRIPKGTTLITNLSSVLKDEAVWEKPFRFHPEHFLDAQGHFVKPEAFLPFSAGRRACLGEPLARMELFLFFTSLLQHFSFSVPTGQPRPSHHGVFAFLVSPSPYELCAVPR

**Q.** With `CCN(C)C(=O)Oc1ccc(C(=O)N2CCC(Cc3ccccc3)CC2)cc1OC` as the molecule, how does the Papp B→A at 2 h, 25 µM [1] read?
**A.** The Papp B→A at 2 h, 25 µM was 10.1 ×10⁻⁶ cm/s.

**Q.** And the Drug uptake [2]?
**A.** The Drug uptake was “Not_active”.

**Q.** What about the Papp A→B at 2 h, 25 µM [3] of the same molecule?
**A.** The Papp A→B at 2 h, 25 µM was 15.7 ×10⁻⁶ cm/s.

**Q.** What about the Activity [4] of the same molecule?
**A.** Its Activity is 2.03 µM.

**Q.** And the “inhibition (INH)” value (Cytochrome P450 2D6)?
**A.** Its value is “Not_active”.

**Q.** What about the Drug uptake [5] of the same molecule?
**A.** Its Drug uptake is “Active”.

**Q.** What about the Drug uptake [6] of the same molecule?
**A.** The Drug uptake was “Active”.

**Q.** And the Activity [7]?
**A.** Its Activity is 9.47 µM.

**Q.** And the Activity [8]?
**A.** Its Activity is “Non-toxic”.

**Q.** What about the Activity [9] of the same molecule?
**A.** The Activity was “Non-toxic”.

**Q.** What about the IC50 [10] of the same molecule?
**A.** The IC50 was greater than 10000 nM.

**Q.** And the Activity [11]?
**A.** Its Activity is “Non-toxic”.

**Q.** What about the solubility [12] of the same molecule?
**A.** The solubility was 32 µg/mL (≈ 78 µM).

**Q.** And the Activity [13]?
**A.** Its Activity is “Non-toxic”.

**Q.** What about the Papp A→B at 2 h, 100 µM [14] of the same molecule?
**A.** The Papp A→B at 2 h, 100 µM was 11.7 ×10⁻⁶ cm/s.

**Q.** And the inhibition (Mus musculus [15])?
**A.** Its inhibition is “Active”.

**Q.** What about the IC50 [16] of the same molecule?
**A.** Its IC50 is 4400 nM.

**Q.** And the Drug uptake [17]?
**A.** Its Drug uptake is “Active”.

**Q.** And the Activity [18]?
**A.** The Activity was “Non-toxic”.

**Q.** What about the Activity [19] of the same molecule?
**A.** Its Activity is “Non-toxic”.

**Q.** What about the Activity [20] of the same molecule?
**A.** Its Activity is “Non-toxic”.

**Q.** What about the inhibition (Homo sapiens [21]) of the same molecule?
**A.** The inhibition was “Time-dependent-effect”.

**Q.** And the inhibition (Mus musculus [22])?
**A.** Its inhibition is “inactive”.

**Q.** What about the Activity [23] of the same molecule?
**A.** The Activity was “Non-toxic”.

**Q.** And the Activity [24]?
**A.** Its Activity is “Non-toxic”.

**Q.** And the inhibition (Mus musculus [25])?
**A.** Its inhibition is “Active”.

**Q.** What about the IC50 [26] of the same molecule?
**A.** Its IC50 is 0.69 nM.

**Q.** And the inhibition (Mus musculus [27])?
**A.** The inhibition was “Active”.

**Q.** And the Activity (Homo sapiens [28])?
**A.** Its Activity is “Active; Compound Exhibited As Covalent Inhibitor”.

**Q.** What about the inhibition (Mus musculus [29]) of the same molecule?
**A.** Its inhibition is “Active”.

**Q.** And the Activity [30]?
**A.** Its Activity is “Non-toxic”.

**Q.** What about the Activity (HepG2) of the same molecule?
**A.** Its Activity is “Non-toxic”.

**Q.** And the inhibition (Mus musculus [31])?
**A.** Its inhibition is “Active”.

**Q.** And the IC50 (Dipeptidyl peptidase 4)?
**A.** Its IC50 is greater than 10000 nM.

**Q.** What about the inhibition (Mus musculus [32]) of the same molecule?
**A.** The inhibition was “Active”.

**Q.** What about the IC50 [33] of the same molecule?
**A.** The IC50 was 0.04 nM.

**Q.** What about the inhibition (Homo sapiens [34]) of the same molecule?
**A.** The inhibition was “Active”.

**Q.** What about the inhibition (Mus musculus [35]) of the same molecule?
**A.** The inhibition was “Active”.

**Q.** What about the IC50 [36] of the same molecule?
**A.** Its IC50 is 2420 nM.

— ChEMBL document CHEMBL6103648, “AI-Driven Discovery of Highly Specific and Efficacious hCES2A Inhibitors for Ameliorating Irinotecan-Triggered Gut Toxicity” (J Med Chem, 2025)
